Test results reported in US20260365647A1, “AKT1 MODULATORS” (Alterome Therapeutics, Inc., priority 2022, published 2026).

Molecular target: T1, AKT1-E17K (Homo sapiens, UniProt P31749, E17K)
T1 construct: host or cells: HEK-293 (ATCC CRL-1573)
Experiment: NanoBRET Target Engagement (TE) Assay
Assay type: cell-based
Excerpt: The NanoBRET™ Target Engagement (TE) Intracellular Kinase Assays are based on the NanoBRET™ System (Promega Corporation), an energy transfer technique designed to measure molecular proximity in living cells. The NanoBRET™ TE Assays measure the apparent affinity of test compounds by competitive displacement of the NanoBRET™ tracer compound, which is a cell permeable molecule engineered to be reversibly bound to a NanoLuc® luciferase-kinase fusion expressed in cells. For compound screening, when a test compound binds to the selected kinase, the BRET signal is attenuated. […] All cells were evaluated for viability prior to transfection and optimization of the transfection was done prior to experimentation. […] Following transfection, cells were washed and resuspended in Opti-MEM. NanoBRET assays were performed in white, 384-well plates (Corning) at a density of […]. All example compounds were prepared as concentrated stock solutions in DMSO (Sigma-Aldrich). Compounds are dissolved in DMSO to make 10 mM stock solution. […] A Labcyte ECHO 550 compound dispenser was used to facilitate compound transfer directly to cells. Cells were equilibrated for 2 hr with energy transfer probes and example compound prior to BRET measurements. […] For target engagement analysis, the energy transfer probes were added to the cells at concentrations optimized for the target in question (AKT E17K). Following compound incubation, NanoBRET NanoGlo Substrate (Promega Cat #N157D) and Extracellular Nanoluc Inhibitor (Promega Cat #N235C) was added according to the manufacturer's recommended protocol, and luminescence was measured on Envision Reader (Perkin Elmer) Multimode Luminometer equipped with 450 nmBPfilter (donor) and 600 nmLPfilter (acceptor), using 0.5 s integration time. Milli-BRET units (mBU) are calculated by multiplying the raw BRET values by 1000. Apparent tracer affinity values (EC50) were determined using the sigmoidal dose-response (variable slope). Competitive displacement data were then plotted and data were fit to determine the EC50 value for each example compound.

T1 sequence (P31749 whole entry E17K): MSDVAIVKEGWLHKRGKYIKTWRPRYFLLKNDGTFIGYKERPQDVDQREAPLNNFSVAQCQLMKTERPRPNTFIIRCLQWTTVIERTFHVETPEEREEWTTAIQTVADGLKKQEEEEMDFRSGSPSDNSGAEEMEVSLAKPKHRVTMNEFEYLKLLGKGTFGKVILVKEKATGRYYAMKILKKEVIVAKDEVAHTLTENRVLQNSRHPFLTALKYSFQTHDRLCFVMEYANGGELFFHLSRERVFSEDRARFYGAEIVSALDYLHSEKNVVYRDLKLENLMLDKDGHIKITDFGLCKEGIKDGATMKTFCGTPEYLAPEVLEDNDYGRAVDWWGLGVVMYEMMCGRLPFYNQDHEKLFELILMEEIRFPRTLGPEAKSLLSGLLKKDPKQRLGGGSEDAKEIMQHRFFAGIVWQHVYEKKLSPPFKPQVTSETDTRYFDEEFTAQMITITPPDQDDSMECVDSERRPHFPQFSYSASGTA

| SMILES | IC50 [µM] |
| --- | --- |
| Nc1ncccc1-c1nc2cccnc2n1-c1ccc(CNC(=O)c2ccc(C=O)c(O)c2)cc1 [Example 3, N-(4-(2-(2-Aminopyridin-3-yl)-3H-imidazo[4,5-b]pyridin-3-yl)benzyl)-4-formyl-3-hydroxybenzamide] | > 0.6 |
| Nc1ncccc1-c1nc2ccc(-c3ccccc3)nc2n1-c1ccc(CN2CCC(N(C(=O)c3ccc(O)c(C=O)c3)C3CC3)CC2)cc1 [Example 12, N-(1-(4-(2-(2-aminopyridin-3-yl)-5-phenyl-3H-imidazo[4,5-b]pyridin-3-yl)benzyl)piperidin-4-yl)-N-cyclopropyl-3-formyl-4-hydroxybenzamide] | 0.06 to 0.6 |
| CCN(C(=O)c1ccc(O)c(C=O)c1)C1CCN(Cc2ccc(-n3c(-c4cccnc4N)nc4ccc(-c5ccccc5)nc43)cc2)CC1 [Example 13, N-(1-(4-(2-(2-Aminopyridin-3-yl)-5-phenyl-3H-imidazo[4,5-b]pyridin-3-yl)benzyl)piperidin-4-yl)-N-ethyl-3-formyl-4-hydroxybenzamide] | 0.06 to 0.6 |
| Nc1ncccc1-c1nc2ccc(-c3ccc[nH]c3=O)nc2n1-c1ccc(CN2CCN(C(=O)c3ccc(O)c(C=O)c3)CC2)cc1 [Example 14, 5-(4-(4-(2-(2-Aminopyridin-3-yl)-5-(2-oxo-1,2-dihydropyridin-3-yl)-3H-imidazo[4,5-b]pyridin-3-yl)benzyl)piperazine-1-carbonyl)-2-hydroxybenzaldehyde] | > 0.6 |
| Nc1ncccc1-c1nc2ccc(-c3ccc[nH]c3=O)nc2n1-c1ccc(CN2CCN(C(=O)c3ccc(C=O)c(O)c3)CC2)cc1 [Example 15, 4-(4-(4-(2-(2-Aminopyridin-3-yl)-5-(2-oxo-1,2-dihydropyridin-3-yl)-3H-imidazo[4,5-b]pyridin-3-yl)benzyl)piperazine-1-carbonyl)-2-hydroxybenzaldehyde] | > 0.6 |

The remaining lines, values ahead:

| IC50 [µM] | SMILES |
| --- | --- |
| 0.06 to 0.6 | Nc1ncccc1-c1nc2cccnc2n1-c1ccc(CNC(=O)c2ccc(O)c(C=O)c2)cc1 [Example 2, N-(4-(2-(2-Aminopyridin-3-yl)-3H-imidazo[4,5-b]pyridin-3-yl)benzyl)-3-formyl-4-hydroxybenzamide] |
| 0.06 to 0.6 | Nc1ncccc1-c1nc2ccc(-c3ccccc3)nc2n1-c1ccc(CN2CCN(C(=O)c3ccc(O)c(C=O)c3)CC2)cc1 [Example 5, 5-(4-(4-(2-(2-Aminopyridin-3-yl)-5-phenyl-3H-imidazo[4,5-b]pyridin-3-yl)benzyl)piperazine-1-carbonyl)-2-hydroxybenzaldehyde] |
| 0.06 to 0.6 | Nc1ncccc1-c1nc2ccc(-c3ccccc3)nc2n1-c1ccc(CN2CCN(C(=O)c3ccc(C=O)c(O)c3)CC2)cc1 [Example 6, 4-(4-(4-(2-(2-Aminopyridin-3-yl)-5-phenyl-3H-imidazo[4,5-b]pyridin-3-yl)benzyl)piperazine-1-carbonyl)-2-hydroxybenzaldehyde] |
| < 0.015 | Nc1ncccc1-c1nc2ccc(-c3ccccc3)nc2n1-c1ccc(CN2CCC(NC(=O)c3ccc(O)c(C=O)c3)CC2)cc1 [Example 7, N-(1-(4-(2-(2-Aminopyridin-3-yl)-5-phenyl-3H-imidazo[4,5-b]pyridin-3-yl)benzyl)piperidin-4-yl)-3-formyl-4-hydroxybenzamide] |
| 0.06 to 0.6 | Nc1ncccc1-c1nc2ccc(-c3ccccc3)nc2n1-c1ccc(CN2CCC(NC(=O)c3ccc(C=O)c(O)c3)CC2)cc1 [Example 8, N-(1-(4-(2-(2-Aminopyridin-3-yl)-5-phenyl-3H-imidazo[4,5-b]pyridin-3-yl)benzyl)piperidin-4-yl)-4-formyl-3-hydroxybenzamide] |
| 0.015 to 0.06 | Nc1ncccc1-c1nc2ccc(-c3ccccc3)nc2n1-c1ccc(CN2CCN(c3ccc(C=O)c(O)c3)CC2)cc1 [Example 9, 4-(4-(4-(2-(2-Aminopyridin-3-yl)-5-phenyl-3H-imidazo[4,5-b]pyridin-3-yl)benzyl)piperazin-1-yl)-2-hydroxybenzaldehyde] |
| 0.06 to 0.6 | Nc1ncccc1-c1nc2ccc(-c3ccccc3)nc2n1-c1ccc(CN2CCN(c3ccc(O)c(C=O)c3)CC2)cc1 [Example 10, 5-(4-(4-(2-(2-aminopyridin-3-yl)-5-phenyl-3H-imidazo[4,5-b]pyridin-3-yl)benzyl)piperazin-1-yl)-2-hydroxybenzaldehyde] |
